Data: PMC13081163, “Discovery of a novel Nrf2 activator that modulates mitochondrial function in neurons by regulating DHRS3-Nrf2 interaction after ischemic stroke” (Theranostics, 2026)
Where two headings read alike, the source gives them in different places. Values belong to the molecule of their own block, whether it stands above or below them.

Columns and labels:
[1] = target: T1, Human recombinant Keap1 proteins (Homo sapiens, UniProt Q14145); test: SPR binding to full-length Keap1; set-up: purchased Sinobiological ME18DE0203; conditions: read-out: KD of Oma (Keap1)
T1 sequence (Q14145 whole entry, the tested form may be a part): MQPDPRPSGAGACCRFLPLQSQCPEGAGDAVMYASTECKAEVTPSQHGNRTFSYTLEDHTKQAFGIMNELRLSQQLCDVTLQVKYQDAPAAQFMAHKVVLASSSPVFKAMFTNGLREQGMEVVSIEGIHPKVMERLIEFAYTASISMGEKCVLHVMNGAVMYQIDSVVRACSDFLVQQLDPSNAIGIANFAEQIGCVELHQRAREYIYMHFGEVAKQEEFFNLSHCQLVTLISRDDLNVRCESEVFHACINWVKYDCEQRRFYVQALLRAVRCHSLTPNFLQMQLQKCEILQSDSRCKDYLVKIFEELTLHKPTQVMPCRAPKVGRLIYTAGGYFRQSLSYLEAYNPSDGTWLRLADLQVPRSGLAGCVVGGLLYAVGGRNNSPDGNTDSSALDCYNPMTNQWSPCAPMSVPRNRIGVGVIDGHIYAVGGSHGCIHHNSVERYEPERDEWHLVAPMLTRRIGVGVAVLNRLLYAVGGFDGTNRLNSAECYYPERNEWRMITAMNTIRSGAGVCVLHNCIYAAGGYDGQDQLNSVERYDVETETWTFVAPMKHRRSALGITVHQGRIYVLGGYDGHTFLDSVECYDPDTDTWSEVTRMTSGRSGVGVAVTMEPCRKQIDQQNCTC
Method: The binding affinity of Cpd.51 or Oma to Keap1 proteins were measured using a Biacore T200. The overall experimental procedures were based on previous reports, [28]. Human recombinant Keap1 proteins or truncated form of Keap1 (residues 48-180 and residues 48-149) were captured on a CM5 chip by a standard amine coupling procedure. Binding sensorgrams were recorded by injecting various concentrations of Cpd.51 over the immobilized proteins surface. The dissociation constant was obtained by globally fitting the data (to the 1:1 Langmuir binding model using the Biacore Insight evaluation software (Cytiva, Marlborough, MA, USA). Affinity tests for Cpd.51 and DHRS3 were also performed using the aforementioned method.

SH-SY5Y cells [2] = test: Protection against OGD/R damage in SH-SY5Y cells (CCK-8); assay type: cell-based, human
Method: To mimic ischemic conditions in vitro, cells were washed with PBS and then cultured for 2.5 h at 37 °C in glucose-free medium under anaerobic conditions (5% hydrogen, 90% nitrogen, and 5% carbon dioxide). OGD process was terminated by transferring cells back to normal glucose-containing medium under normoxic conditions (5% CO₂, 37 °C) and maintained for 24 h.
In the administration group, cells were exposed for 12 h with Cpd.51 prior to OGD. OGD lasted for 2.5 h and the reperfusion lasted for 24 h before the experiment was concluded. Subsequently, cell viability was determined using the cell counting kit-8 (CCK-8, C0039, Beyotime, China). In the experiment to explore the treatment time window, the only difference was the timing of the Cpd.51 treatment, while all other procedures remained unchanged.
Hek-293T cells were transiently transfected, using Lipofectamine™ 3000 and P3000™ reagent (L3000075, Invitrogen, USA) according to the manufacturer's instructions, with the wild-type, point-mutant and double-mutations constructs of Keap1, DHRS3 or Nrf2 (each at 0.5 ng/μL), respectively. Similarly, to promote the expression of the DHRS3 gene, a DHRS3 expression plasmids (0.5 ng/μL) was transfected as well as the corresponding negative controls into SH-SY5Y cells for 6 h, and further cultured with fresh medium for 18 h according to the manufacturer's instructions.

[3] = set-up: method as in PMID 40455368; conditions: 28-day, oral 10 mg/kg, rats; cited from earlier work
[4] = 28-day long-term toxicity in rats (intragastric); assay type: in vivo, rat; conditions: 28 days intragastric
Method: During the long-term toxicity test, rats in each group received daily intragastric administration for 28 consecutive days. Animals in the Sham group were administered a mixture of 99% sesame oil and 1% DMSO at a volume of 0.5 mL per rat. Rats in the remaining groups were intragastrically administered varying doses of the respective therapeutic agents.
During the 28-day long-term toxicity study, rats were euthanized following the completion of continuous intragastric administration. Livers and kidneys from both male and female rats in each group were photographed for macroscopic examination, and serum samples were collected for subsequent kit-based analysis. The liver/kidney index was obtained by dividing the weight of the liver/kidney by the body weight.

tMCAO rats = test: Long-term recovery after tMCAO (survival, body weight, behaviour); assay type: in vivo, rat; conditions: 5 mg/kg tail vein injection for 7 d
Method: To assess the degree of neurological impairment, we conducted modified Neurological Severity Score (mNSS) according to previous experience. The investigator was blinded to the grouping situation during the whole experiment.
On postoperative day 3 two wooden boards of identical size were joined at a 30° angle, with a narrow gap retained at the junction. The rat was positioned facing the apex of the angle. When it advanced into the deeper part of the angle, bilateral whisker contact with the boards triggered a characteristic rearing response, followed by a turn to face the opposite direction. Each rat underwent 15 trials, and the number of right turns was recorded. The higher the right-turn ratio, the more severe the injury.
Rats were placed on a horizontal, stainless steel wire grid. The grid was then smoothly rotated 180 degrees to an inverted position and held stationary at a height of 0.8 m. A stopwatch was started immediately upon inversion to measure the latency to fall. The test was terminated if the animal remained on the grid for 60 s, at which point it was gently returned to its home cage, and a score of 60 s was recorded.
The Y-maze apparatus consisted of three symmetrically arranged enclosed arms (typically labeled Arms A, B, and C), each positioned 120° apart. At the start of each trial, the subject was placed in Arm A and allowed to move freely through the maze for 8 min. Spatial working memory was evaluated by calculating the spontaneous alternation rate, using the following formula:
Following a 2 h acclimation period, the rats were within an open field cubic box (100 × 100 × 40 cm^3) and allowed 5 min of unrestricted movement. The travel distance and the time spent in the central area were recorded.
The spatial learning and memory of rats were assessed using the Morris water maze (MWM) from post-operative days 23 to 26. Over four consecutive days, animals underwent training trials in which they were required to locate a submerged escape platform within 60 s. Each rat was gently placed into the water facing the pool wall. If the rat found the platform and remained on it for 10 s, the escape latency was recorded. If the platform was not found within 60 s, the rat was guided onto it and allowed to stay for 10 s, and the latency was recorded as 60 s. Following the training phase, the platform was removed, and a visual spatial memory test lasting for 60 s was conducted to assess the retention of memory. The number of platform-location crossings and the time spent in the target quadrant were recorded and analyzed.

[5] = set-up: method as in PMID 37155124; conditions: clinical; cited from earlier work
SH-SY5Y cells [6] = test: Cytotoxicity in SH-SY5Y cells, 24 h incubation; assay type: cell-based; conditions: Homo sapiens
[7] = cited from earlier work
[8] = test system: ARE-luciferase reporter (Nrf2 activation), Hek-293T cells; test: ARE-luciferase reporter gene assay; assay type: cell-based; conditions: Homo sapiens; Hek-293T cells, 12 h after drug treatment
Method: The Hek-293T cells were cultured in 96-well plates 24 h before transfection with ARE-luciferase reporter plasmid (11548ES03, Yeasen, China) for 48 h according to the manufacturer's instructions. The Firefly luciferase activities was carried out 12 h after the drug treatment, as described by the manufacturer (11412ES81, Yeasen, China).

[9] = Acute (7-day i.v.) toxicity in rats; assay type: in vivo, rat; conditions: 10 mg/kg i.v. daily for 7 days
Method: Cpd.51 was dissolved in solvent (10% DMSO, 10% Solutol HS-15 and 80% saline). It was injected (i.v.) at dose of 3 mg/kg or 5 mg/kg in a 0.5 mL volume. The Sham group and Vehicle group were treated simultaneously with an equal volume of solvent. In the experiment to explore the treatment time window, we merely administered the drug to the rats at different time points, while all other procedures remained unchanged. In the short-term toxicity study, 10 mg/kg Cpd.51 and Oma were administered via tail vein injection at 0.5 mL daily for 7 consecutive days.
Glutamic-pyruvic transaminase (GPT) kits (ml092635, mlbio, China), glutamic oxaloacetic transaminase (GOT) kits (ml092714, mlbio, China), creatinine (CRE) kits (M12C4L, mlbio, China) and blood urea nitrogen (BUN) kits (ml076479, China) were used to detect the serum of rats in order to evaluate liver and kidney functions. Male and female rats were randomly divided into Sham group, Cpd.51 group and Oma group. Doses were administered once daily at 10 mg/kg and body weights were recorded accordingly. Sham groups were given the same volume of solvent. After 7 days, the […] were sacrificed, serum was collected and tested according to the instructions.

[10] = target: T1, Human recombinant Keap1 proteins; conditions: cited from earlier work
[11] = Oma 10 mg/kg, Cpd.51 1, 3 and 10 mg/kg

Sequence of Nrf2 (Q16236 whole entry): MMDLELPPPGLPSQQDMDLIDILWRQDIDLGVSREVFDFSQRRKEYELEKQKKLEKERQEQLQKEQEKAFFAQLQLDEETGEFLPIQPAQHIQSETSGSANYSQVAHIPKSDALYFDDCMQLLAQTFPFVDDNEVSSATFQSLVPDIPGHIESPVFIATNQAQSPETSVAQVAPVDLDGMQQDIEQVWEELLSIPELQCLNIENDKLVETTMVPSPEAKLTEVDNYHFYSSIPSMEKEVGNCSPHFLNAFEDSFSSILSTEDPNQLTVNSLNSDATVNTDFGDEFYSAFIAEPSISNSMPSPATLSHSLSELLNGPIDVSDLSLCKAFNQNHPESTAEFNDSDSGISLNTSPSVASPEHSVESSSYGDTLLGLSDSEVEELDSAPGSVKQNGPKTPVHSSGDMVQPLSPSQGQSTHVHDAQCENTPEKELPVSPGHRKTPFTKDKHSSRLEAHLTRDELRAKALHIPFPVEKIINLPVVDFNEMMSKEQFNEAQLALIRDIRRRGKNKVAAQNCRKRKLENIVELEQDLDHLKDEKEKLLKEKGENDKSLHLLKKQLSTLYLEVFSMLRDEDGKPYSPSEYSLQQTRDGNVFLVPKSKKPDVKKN

Kd [1]: 21.7 nM
Molecule: CC1(C)CC[C@]2(NC(=O)C(C)(F)F)CC[C@]3(C)[C@H](C(=O)C=C4[C@@]5(C)C=C(C#N)C(=O)C(C)(C)[C@@H]5CC[C@]43C)[C@@H]2C1 [Oma, Omaveloxolone, reference compound]
OGD/R damage when administered at different time points (SH-SY5Y cells [2]; 100 nM, CCK-8): consistently alleviated OGD/R damage
EC50 (SH-SY5Y cells [2]; Homo sapiens, SH-SY5Y, read-out: EC50 against OGD/R damage): 80.8 nM
hepatotoxicity (liver weight, plasma ALT) [3]: induced hepatotoxicity
liver and kidney indices ([4]; 10 mg/kg, female and male rats): markedly increased the liver and kidney indices
body weight [4, 11]: neither compound significantly affected body weight
plasma markers of hepatic and renal injury [4, 11]: significantly elevated plasma markers of hepatic and renal injury
body weight and mNSS scores, long-term (tMCAO rats): significantly improved body weight and mNSS scores
corner, inverted screen, Y maze and open field tests (tMCAO rats; vs model group): exhibited improvements in neurological deficits, motor abilities, and spatial working and reference memory
apparent volume of distribution (Vd) [5]: ~105 L/kg
terminal half-life (T1/2) [5]: ~57 h
IC50 (SH-SY5Y cells [6]): 758 nM
patients developing liver injury during clinical trials [7]: ~ 37%
EC50 [8]: 104 nM
liver hypertrophy, serum GPT and GOT [9]: marked liver hypertrophy and elevated serum levels of glutamic-pyruvic transaminase (GPT) and glutamic oxaloacetic transaminase (GOT)
serum CRE and BUN [9]: increased serum creatinine (CRE) and blood urea nitrogen (BUN) levels
weight gain [9]: suppressed weight gain

Molecule: Nrf2 (from UniProt Q16236)
Kd [10]: 19 nM
